# Several values for one entry are separate records, joined by “and”; a condition that tells them apart may be missing. Equal entries are not always repeated. Where two headings read alike, the source gives them in different places.
# How the values were obtained:
# [1] = Repeated discontinuous oral DEX PK study (another 60 mice); assay type: in vivo, mouse; settings: for share of mice with measurable DEX / share of mice with DEX plasma concentration below LLOQ: Days 3.5+10.5; for share of mice with DEX plasma concentration below LLOQ: LLOQ = 5 nM; for concentration at 3.5 day / concentration at 10.5 day / concentration at 17.5 day: 8 mg/L, Average ± S.D. of quantifiable samples
# Procedure: 1 g/L of tetracycline (Sigma-Aldrich Inc, St. Louis, MO, USA) was added during both phases. Assuming that mice drink 5 mL of water per day, the dose they receive would be 1.6–2 mg/kg/day. […] At the end of in vivo procedures, all plasma samples were transferred from dry ice and stored at –80°C until analysis.
# [2] = tested on: BCR-ABL Arf-/- Luc+ ALL cells; experiment: Survival study of mice with BCR-ABL Arf-/- leukemia on discontinuous DEX regimen; assay type: in vivo, mouse; settings: for median survival time: BCR-ABL Arf-/- ALL, discontinuous DEX
# Source text: Murine BCR-ABL Arf^-/- Luc^+ ALL cells were created by Dr. Charles Sherr (St. Jude Children’s Research Hospital) and provided immediately prior to mouse injection by the laboratory of Dr. Mary Relling (St. Jude Children’s Research Hospital). The cells had been tested for mycoplasma and were authenticated by flow cytometry for cell surface markers, tested for their leukemia-inducing capabilities with serial dilutions of cell numbers (from 2 million down to 2,000 cells), and ensured that the cells with the luciferase constructs produced light when combined with luciferin. Only cells from early passage (P3-P15) were used for these experiments. The St Jude Children’s Research Hospital Institutional Biosafety Committee and IACUC approved the use of these cells for injection into mice. C57BL/6 VD3 sufficient (n = 24) and deficient (n = 22) male mice (8–18 wk of age) were anaesthetized using isoflurane and injected iv with 2,000 BCR-ABL Arf^-/- Luc^+ ALL cells on day zero. […] Xenogen IVIS-200 (Caliper Life Sciences, Hopkinton, MA) was used to acquire bioluminescent images 5 minutes post-intra peritoneal injection of 200 μL of 100 mg/kg D-Luciferin (Caliper Life Sciences, Hopkinton, MA). Mice were anaesthetized with isoflurane during this procedure. The bioluminescent signal (photons/s) from a fixed region of interest (ROI) is used to monitor the disease progression twice every week. Images acquired here were analyzed using Living Image 3.1 software (Caliper Life Sciences), where whole body luciferase flux measurements (photons/s) were quantified as disease burden. Animal Welfare: All efforts were taken to minimize suffering and distress in the survival studies. […] All other mice in the survival study were euthanized within hours of reaching the humane end point/end of study = moribund for any reason which was determined based on hind limb paralysis (very typically observed in mice with BCR-ABL ALL), scruffy coat, lethargy or an inability to obtain food or water (SJ IACUC protocol #100468–613). A portion of spleen and hind limb were fixed, paraffin embedded, cut, and slides stained with hematoxylin and eosin and evaluated by a St Jude Pathologist (Dr. Laura Janke) to confirm leukemia was the cause of death.
# [3] = in vivo; settings: female, C57BL/6, mouse, plasma, po, 2 mg/kg
# Procedure: Blood was collected via saphenous/retro-orbital vein at time points: 0.25, 0.75, 0.5, 1, 1.5, 2, 4, 8, 16 hours after treatment. Three sets of mice were used for this experiment, where set 1 was sampled at 2,4,8 hr; set 2 at 0.25, 0.75, 1.5 hr; set 3 at 0.5, 1 and 16 hr. Samples were centrifuged at 10,000 rpm for 2 minutes, plasma was removed and stored at -80°C until further analysis.
# Briefly, parameters and the Fisher Information Matrix (FIM) were estimated using the stochastic approximation expectation maximization (SAEM) algorithm, and the final log-likelihood estimated with importance sampling, all using the default Monolix initial settings, except that 1000 iterations were permitted for estimation of FIM using stochastic approximation. A variety of models were fit to the respective compound’s Ct data, parameterized using apparent clearances, volumes of distribution, and absorption rate constant as needed. […] A log-normal inter-individual and inter-occasion parameter distribution was assumed on selected supported parameters, with both on- and off-diagonal elements of parameter covariance matrices tested. Additive and/or proportional error models were tested and implemented as supported. Beal’s M3 method was used to fit any data that were below the LLOQ or above the upper limit of the assay range [20]. […] Additionally, Wald test P values were outputted for each covariate effect by the Monolix software.
# Additionally, Wald test P values were outputted for each covariate effect by the Monolix software.
# [4] = tested on: GCR; settings: read-out: GCR EC50; printed in Fig 9; ref J Biol Chem. 2002 Jan 11; PMID: 11682470; cited from earlier work
# [5] = Dasatinib disposition in bile duct cannulated rats (literature); assay type: in vivo, rat
# [6] = tested on: CYP3A4; settings: in vitro metabolic studies; humans; cited from earlier work
# [7] = cited from earlier work; for Tmax: oral dosing
# [8] = bile duct cannulated rats; no reference given; cited from earlier work
smiles,measurement,setting,value
"C[C@@H]1C[C@H]2[C@@H]3CCC4=CC(=O)C=C[C@]4(C)[C@@]3(F)[C@@H](O)C[C@]2(C)[C@@]1(O)C(=O)CO [DEX, dexamethasone]",share of mice with measurable DEX,[1]; female VD3 deficient,100%
same,share of mice with DEX plasma concentration below LLOQ,[1]; female VD3 sufficient,68%
same,concentration at 3.5 days,"[1]; female, C57BL/6, mouse, plasma, oral, 8 mg/L in drinking water, DEX conc, individual mouse, repeated study, VD3 Suf, 3.5 Days",52.8 nM
same,concentration at 10.5 days,"[1]; female, C57BL/6, mouse, plasma, oral, 8 mg/L in drinking water, DEX conc, individual mouse, repeated study, VD3 Suf, 10.5 Days",6.84 nM
same,concentration at 3.5 day,"[1]; female, C57BL/6, mouse, plasma, oral, DEX conc, plasma, repeated study, VD3 Deficient, F, Day 3.5, n=15",51.8 ± 86.8 nM
same,concentration at 10.5 day,"[1]; female, C57BL/6, mouse, plasma, oral, DEX conc, plasma, repeated study, VD3 Deficient, F, Day 10.5, n=10",116 ± 169 nM
same,concentration at 17.5 day,"[1]; female, C57BL/6, mouse, plasma, oral, DEX conc, plasma, repeated study, VD3 Deficient, F, Day 17.5, n=5",106 ± 65.5 nM
same,concentration at 3.5 day,"[1]; female, C57BL/6, mouse, plasma, oral, DEX conc, plasma, repeated study, VD3 Sufficient, F, Day 3.5, n=5",47.2 ± 9.15 nM
same,concentration at 10.5 day,"[1]; female, C57BL/6, mouse, plasma, oral, DEX conc, plasma, repeated study, VD3 Sufficient, F, Day 10.5, n=3",7.71 ± 1.12 nM
same,concentration at 17.5 day,"[1]; female, C57BL/6, mouse, plasma, oral, DEX conc, plasma, repeated study, VD3 Sufficient, F, Day 17.5, n=5",45.6 ± 27.2 nM
same,% BLQ,"[1]; female, VD3 Def, 3.5 Days",0%
same,% BLQ,"[1]; female, VD3 Def, 10.5 Days",0%
same,% BLQ,"[1]; female, VD3 Def, 17.5 Days",0%
same,% BLQ,"[1]; female, VD3 Suf, 3.5 Days",67%
same,% BLQ,"[1]; female, VD3 Suf, 10.5 Days",70%
same,% BLQ,"[1]; female, VD3 Suf, 17.5 Days",0%
same,share of mice with measurable DEX,[1]; male VD3 deficient,96.5%
same,share of mice with DEX plasma concentration below LLOQ,[1]; male VD3 sufficient,83%
same,concentration at 3.5 day,"[1]; male, C57BL/6, mouse, plasma, oral, DEX conc, plasma, repeated study, VD3 Deficient, M, Day 3.5, n=13",16 ± 16.6 nM
same,concentration at 10.5 day,"[1]; male, C57BL/6, mouse, plasma, oral, DEX conc, plasma, repeated study, VD3 Deficient, M, Day 10.5, n=10",48.7 ± 59.4 nM
same,concentration at 17.5 day,"[1]; male, C57BL/6, mouse, plasma, oral, DEX conc, plasma, repeated study, VD3 Deficient, M, Day 17.5, n=5",16.7 ± 7.19 nM
same,concentration at 3.5 day,"[1]; male, C57BL/6, mouse, plasma, oral, DEX conc, plasma, repeated study, VD3 Sufficient, M, Day 3.5, n=5",30.1 ± 14.4 nM
same,concentration at 17.5 day,"[1]; male, C57BL/6, mouse, plasma, oral, DEX conc, plasma, repeated study, VD3 Sufficient, M, Day 17.5, n=5",25.2 ± 8.2 nM
same,% BLQ,"[1]; male, VD3 Def, 10.5 Days",0%
same,% BLQ,"[1]; male, VD3 Def, 17.5 Days",0%
same,% BLQ,"[1]; male, VD3 Suf, 10.5 Days",100%
same,% BLQ,"[1]; male, VD3 Suf, 17.5 Days",0%
same,"DEX conc, Average ± S.D. of quantifiable samples","[1]; plasma, repeated study, VD3 Deficient, F, Day 3.5, n=15",51.832 nM
same,"DEX conc, Average ± S.D. of quantifiable samples","[1]; plasma, repeated study, VD3 Deficient, F, Day 10.5, n=10",116.245 nM
same,"DEX conc, Average ± S.D. of quantifiable samples","[1]; plasma, repeated study, VD3 Deficient, F, Day 17.5, n=5",105.912 nM
same,"DEX conc, Average ± S.D. of quantifiable samples","[1]; plasma, repeated study, VD3 Deficient, M, Day 3.5, n=13",15.9992 nM
same,"DEX conc, Average ± S.D. of quantifiable samples","[1]; plasma, repeated study, VD3 Deficient, M, Day 10.5, n=10",48.71 nM
same,"DEX conc, Average ± S.D. of quantifiable samples","[1]; plasma, repeated study, VD3 Deficient, M, Day 17.5, n=5",16.66 nM
same,"DEX conc, Average ± S.D. of quantifiable samples","[1]; plasma, repeated study, VD3 Sufficient, F, Day 3.5, n=5",47.222 nM
same,"DEX conc, Average ± S.D. of quantifiable samples","[1]; plasma, repeated study, VD3 Sufficient, F, Day 10.5, n=3",7.71 nM
same,"DEX conc, Average ± S.D. of quantifiable samples","[1]; plasma, repeated study, VD3 Sufficient, F, Day 17.5, n=5",45.604 nM
same,"DEX conc, Average ± S.D. of quantifiable samples","[1]; plasma, repeated study, VD3 Sufficient, M, Day 3.5, n=5",30.144 nM
same,"DEX conc, Average ± S.D. of quantifiable samples","[1]; plasma, repeated study, VD3 Sufficient, M, Day 17.5, n=5",25.19 nM
same,"DEX conc, individual mouse","[1]; plasma, repeated study, female, VD3 Suf, 3.5 Days","BLQ (BLQ = BELOW the LLOQ, lower lmit of quantification = 5 nM dexamethasone)"
same,"DEX conc, individual mouse","[1]; plasma, repeated study, female, VD3 Suf, 10.5 Days","BLQ (BLQ = BELOW the LLOQ, lower lmit of quantification = 5 nM dexamethasone)"
same,"DEX conc, individual mouse","[1]; plasma, repeated study, male, VD3 Def, 3.5 Days","9.88 nM and 17.04 nM and 5.32 nM and 11.52 nM and 38.23 nM and BLQ (BLQ = BELOW the LLOQ, lower lmit of quantification = 5 nM dexamethasone) and 6.47 nM and 59.55 nM and 8.86 nM and 29.02 nM and 4.39 nM and 6.91 nM"
same,"DEX conc, individual mouse","[1]; plasma, repeated study, male, VD3 Def, 10.5 Days",19.46 nM and 37.99 nM and 211.48 nM and 27.59 nM and 28.34 nM and 9.45 nM and 27.41 nM
same,"DEX conc, individual mouse","[1]; plasma, repeated study, male, VD3 Def, 17.5 Days",12.05 nM and 27.36 nM
same,"DEX conc, individual mouse","[1]; plasma, repeated study, male, VD3 Suf, 3.5 Days","BLQ (BLQ = BELOW the LLOQ, lower lmit of quantification = 5 nM dexamethasone)"
same,"DEX conc, individual mouse","[1]; plasma, repeated study, male, VD3 Suf, 10.5 Days","BLQ (BLQ = BELOW the LLOQ, lower lmit of quantification = 5 nM dexamethasone)"
same,"DEX conc, individual mouse","[1]; plasma, repeated study, male, VD3 Suf, 17.5 Days",22.35 nM and 12.66 nM and 32.4 nM and 32.15 nM and 26.39 nM
same,% BLQ,"[1]; share of plasma samples below LLOQ 5 nM, male, VD3 Suf, 3.5 Days",67%
same,median survival time,[2]; DEX-treated VD3 deficient male mice,59 days
same,median survival time,[2]; DEX-treated VD3 sufficient male mice,36 days
same,Survival proportions,"[2]; VD3 Deficient, days survived 0",100
same,Survival proportions,"[2]; VD3 Deficient, days survived 22",90.5
same,Survival proportions,"[2]; VD3 Deficient, days survived 24",85.7
same,Survival proportions,"[2]; VD3 Deficient, days survived 32",81
same,Survival proportions,"[2]; VD3 Deficient, days survived 36",76.2
same,Survival proportions,"[2]; VD3 Deficient, days survived 38",71.4
same,Survival proportions,"[2]; VD3 Deficient, days survived 48",61.9
same,Survival proportions,"[2]; VD3 Deficient, days survived 55",57.1
same,Survival proportions,"[2]; VD3 Deficient, days survived 59",47.6
same,Survival proportions,"[2]; VD3 Sufficient, days survived 0",100
same,Survival proportions,"[2]; VD3 Sufficient, days survived 15",90.9
same,Survival proportions,"[2]; VD3 Sufficient, days survived 22",86.4
same,Survival proportions,"[2]; VD3 Sufficient, days survived 23",81.8
same,Survival proportions,"[2]; VD3 Sufficient, days survived 25",72.7
same,Survival proportions,"[2]; VD3 Sufficient, days survived 32",63.6
same,Survival proportions,"[2]; VD3 Sufficient, days survived 34",59.1
same,Survival proportions,"[2]; VD3 Sufficient, days survived 35",54.5
same,Survival proportions,"[2]; VD3 Sufficient, days survived 37",45.5
same,Survival proportions,"[2]; VD3 Sufficient, days survived 38",40.9
same,Survival proportions,"[2]; VD3 Sufficient, days survived 48",27.3
same,Survival proportions,"[2]; VD3 Sufficient, days survived 55",22.7
same,Survival proportions,"[2]; VD3 Sufficient, days survived 59",18.2
same,concentration at 2 h,[3],676 ng/mL
same,EC50,[4],11 nM
Cc1nc(Nc2ncc(C(=O)Nc3c(C)cccc3Cl)s2)cc(N2CCN(CCO)CC2)n1 [dasatinib],percentage absorbed,"[5]; bile duct cannulated rats, inferred from unchanged drug",67%
same,share of absorbed drug that might undergo hepatic metabolism,[5]; rats,60%
same,share of total drug that might undergo hepatic metabolism,[5]; rats,at least 40%
same,share of dasatinib metabolized by CYP3A4,[6],98%
same,bioavailability,[7]; mice,17%
same,bioavailability,"[7]; one study, species not given",45–51%
same,Tmax,[7]; Mdr1a wild-type and KO mice,0.25 h
same,Tmax,[7]; nude female nude mice,2 h
same,oral bioavailability,[8],27%
same,percentage of unchanged drug in the gastrointestinal tract,[8],33%

# Reference: paper PMC8528301 (PLoS ONE, 2021)
